Consider seven molecules from patent US8193241B2, “Discodermolide analogues and methods of their use” (The Trustees Of The University Of Pennsylvania, priority 2007, dated 2012).

Common to all, as to assay type: cell-based
One assay concerns breast (MCF-7) cell line. Kind of assay: Antiproliferative activity, MCF-7. The following applies: Homo sapiens, MCF7; MCF-7 breast cell line.
In assay [1] the test system is wide range of cell lines, including breast (MCF-7), ovarian (SKOV3) and MDR (NCI/ADR). Kind of assay: Antiproliferative assays over a series of cell lines (statements in words). The following applies: wide range of cell lines incl. MCF-7, SKOV3, NCI/ADR.
Assay [2] deals with multi-drug resistant (MDR) cell line (NCI/ADR), over-expresses P-glycoprotein. Kind of assay: Antiproliferative activity, NCI/ADR. As to conditions: Homo sapiens, NCI/ADR-RES.
For assay [3], the system named is ovarian (SKOV3) cell line. Kind of assay: Antiproliferative activity, SKOV3. The following applies: Homo sapiens, SK-OV-3.

For `CC/C=C\C(C)[C@H](OC(N)=O)[C@@H](C)[C@H](O)[C@@H](C)C/C(C)=C\[C@H](C)[C@@H](O)C(C)/C=C\c1ccc2ccc(=O)oc2c1` (single isomer, unassigned; (+)) [(+)-8], the values for the IC50 (in the assay with breast (MCF-7) cell line; in assay [2]; in assay [3]) were 15 nM, 230 nM and 35 nM, respectively. Besides, the “Antiproliferative activity in words” value in assay [1] is “nanomolar activity equivalent to (+)-1 and (+)-6”.
As for `C=C/C=C\[C@H](C)[C@H](OC(N)=O)[C@@H](C)[C@H](O)[C@@H](C)C/C(C)=C\[C@H](C)[C@@H](O)[C@@H](C)/C=C\[C@@H](O)CC1OC(=O)[C@H](C)[C@@H](O)[C@H]1C` (single isomer, unassigned; (+)) [(+)-Discodermolide 1, (+)-discodermolide, reference compound], the IC50 in the assay with breast (MCF-7) cell line was 26 nM; in assay [2], 260 nM; in assay [3], 25 nM.
Take `CC/C=C\C(C)[C@H](OC(N)=O)[C@@H](C)[C@H](O)[C@@H](C)C/C(C)=C\[C@H](C)[C@@H](O)C(C)/C=C\c1ccc2oc(=O)ccc2c1` (single isomer, unassigned; (+)) [(+)-9]: the IC50 with breast (MCF-7) cell line came to 1600 nM; in assay [2], 3300 nM; in assay [3] it was 1800 nM. In addition, the “Antiproliferative activity in words” value in assay [1] is on record as “micromolar activity”.
The corresponding values for `CC/C=C\C(C)[C@H](OC(N)=O)[C@@H](C)[C@H](O)[C@@H](C)C/C(C)=C\[C@H](C)[C@@H](O)C(C)/C=C\c1ccc2c(c1)N(C)C(=O)CO2` (single isomer, unassigned; (+)) [(+)-11] are 1600 nM, 3200 nM, 2400 nM and “micromolar activity”.
Take `C=C/C=C\C(C)[C@H](OC(N)=O)[C@@H](C)[C@H](O)[C@@H](C)C/C(C)=C\[C@H](C)[C@@H](O)C(C)/C=C\c1ccc2ccc(=O)oc2c1` (single isomer, unassigned; (+)) [(+)-6]: the values for the IC50 (in the assay on breast (MCF-7) cell line; in assay [2]; in assay [3]) were 12 nM, 190 nM and 44 nM, respectively. Moreover, in assay [1], the “Antiproliferative activity in words” value is on record as “nanomolar activity similar to (+)-discodermolide 1”.
With `CC/C=C\C(C)[C@H](OC(N)=O)[C@@H](C)[C@H](O)[C@@H](C)C/C(C)=C\[C@H](C)[C@@H](O)C(C)/C=C\c1ccc2c(c1)NC(=O)CO2` (single isomer, unassigned; (-)) [(−)-10], the values for the IC50 (with breast (MCF-7) cell line; in assay [2]; in assay [3]) were 430 nM, 840 nM and 790 nM, respectively. Moreover, in assay [1], the “Antiproliferative activity in words” value is “micromolar activity”.
In the case of `CC/C=C\C(C)[C@H](OC(N)=O)[C@@H](C)[C@H](O)[C@@H](C)C/C(C)=C\[C@H](C)[C@@H](O)C(C)/C=C\c1ccc2c(c1)N(COC)C(=O)CO2` (single isomer, unassigned; (+)) [(+)-12], the figures for the IC50 (with breast (MCF-7) cell line; in assay [2]; in assay [3]) were 3000 nM, 4000 nM and 2900 nM, respectively. In addition, in assay [1], the “Antiproliferative activity in words” value is listed as “micromolar activity”.
